Test results from patent US12729404B2, “Method and kit for testing drug hypersensitivity reactions caused by sulfonamide derivative-based antiepileptic drug and use of the kit” (CHANG GUNG MEMORIAL HOSPITAL, LINKOU, priority 2020, dated 2026).

Columns and labels:
Settings in all cases: in vivo
HLA-B*13:01 [1] = target: T1, HLA-B*13:01 (Homo sapiens, UniProt P01889, A65T/A93T/A95T/D138N/D201E/D98Y/E176V/E204Q/E69M/E70A/G107R/K202T/L105A/L119I/N104T/N87E/Q94N/R106L/R155S/R169L/R180L/S101N/S121R/S35A/S48T/T118I/V127L/V36M/Y140L/Y91S)
HLA-B*13:01 [2] = target: T1, HLA-B*13:01; remark: listed apart in the source
HLA-B*51:01 or B*51:02 = system: HLA-B*51:01 or B*51:02

Question: Which “DHR (%) carrying the allele” value (HLA-B*13:01 [1]) does the source give for `NS(=O)(=O)Cc1noc2ccccc12` [zonisamide] here?
Answer: The value was 100%.

Question: What about the “DHR N (allele carriers / patients)” value (HLA-B*13:01 [1]) of the same molecule?
Answer: The value was 3/3.

Question: And the Sensitivity (HLA-B*13:01 [1])?
Answer: Its Sensitivity is 100.00%.

Question: And the Specificity (HLA-B*13:01 [1])?
Answer: The Specificity was 88.52%.

Question: What about the “Cases N (allele carriers / patients)” value (HLA-B*13:01 [2]) of the same molecule?
Answer: Its value is 5/7.

Question: What about the OR (HLA-B*13:01 [2]) of the same molecule?
Answer: Its OR is 19.3.

Question: What about the “Cases N (allele carriers / patients)” value (HLA-B*51:01 or B*51:02) of the same molecule?
Answer: The value was 4/7.

Question: What about the OR (HLA-B*51:01 or B*51:02) of the same molecule?
Answer: The OR was 8.3.
